Test results published in patent US10913751B2, “1,3-diazo-4-oxa-[3.3.1]-bicyclic derivatives, process for their manufacture and their use as a medicament, in particular for treating diabetes” (UNIVERSITA' DI PISA, priority 2017, dated 2021).

Legend:
[1] = tested on: GLP-1 receptor; assay: ELISA assay of secreted GLP-1 forms (mSTC-1 GLP-1 sec CRC); format: cell-based; conditions: mSTC-1 cells, GLP-1 secretion, concentration-response curve, ELISA readout, FIG. 1; read-out: action as a GLP-1 receptor agonist (mSTC-1 GLP-1 sec CRC)
Experimental: The biological activity of the synthesised compounds was measured with an ELISA assay.
The biological activity of the compound (5S*,9R*)-9-phenyl-3-phenylacetyl-4-oxa-1,3-diazabicyclo[3.3.1]non-6-ene (Ib) as a GLP-1 receptor agonist was measured via an ELISA assay specifically modified in order to identify the forms of GLP-1 secreted.

| EC50 [1] [µM] | melting point [°C] | SMILES |
| --- | --- | --- |
| 11 | 156 to 159 | O=C(Cc1ccccc1)N1CN2CC=C[C@H](O1)[C@H]2c1ccccc1 (relative stereo) [Ib, (5S*,9R*)-9-phenyl-3-phenylacetyl-4-oxa-1,3-diazabicyclo[3.3.1]non-6-ene] |
|  | 68 to 70 | CC[C@@H]1[C@@H]2C=CCN1CN(C(=O)Cc1ccccc1)O2 (relative stereo) [If, (5S*,9R*)-9-ethyl-3-phenylacetyl-4-oxa-1,3-diazabicyclo[3.3.1]non-6-ene] |
